# Assay results from publication PMC2854724, “In Vitro Screening of Environmental Chemicals for Targeted Testing Prioritization: The ToxCast Project” (Environmental Health Perspectives, 2009).
# How the values were obtained:
# PPARγ = target: T1, PPARγ (Homo sapiens, UniProt P37231); assay: PPARγ assays
# T1 sequence (P37231 1-505): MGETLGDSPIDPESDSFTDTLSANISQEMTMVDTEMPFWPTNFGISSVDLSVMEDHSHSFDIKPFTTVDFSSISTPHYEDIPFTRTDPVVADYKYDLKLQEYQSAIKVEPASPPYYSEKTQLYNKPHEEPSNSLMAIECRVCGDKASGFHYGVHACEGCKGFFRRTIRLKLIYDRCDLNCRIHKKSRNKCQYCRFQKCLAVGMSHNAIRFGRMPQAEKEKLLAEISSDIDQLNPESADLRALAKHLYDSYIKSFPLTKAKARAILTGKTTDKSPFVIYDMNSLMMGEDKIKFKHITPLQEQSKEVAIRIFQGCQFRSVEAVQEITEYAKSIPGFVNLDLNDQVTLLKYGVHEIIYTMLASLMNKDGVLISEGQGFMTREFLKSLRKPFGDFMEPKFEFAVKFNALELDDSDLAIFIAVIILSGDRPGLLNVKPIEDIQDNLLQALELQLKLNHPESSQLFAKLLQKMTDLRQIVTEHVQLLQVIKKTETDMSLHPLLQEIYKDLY
# Description: We screened the chemical library using nine separate assay technologies, with assays run in concentration–response format and in some cases with multiple time points. Assays encompass both direct, primary interactions between chemicals and molecular targets and downstream cellular events such as gene expression. […] There are 467 cell-free or cell-based assays. Assay sets include biochemical HTS and cell-based HTS assays measuring direct molecular interactions with specific protein targets; high-content cell-imaging assays measuring complex cellular phenotypes; a multiplexed gene expression assay for xenobiotic metabolizing enzymes and transporters in human primary hepatocytes; multiplexed transcription factor reporter assays; multiplexed biological activity profiling assays measuring biomarkers in a variety of human primary cell cocultures; assays measuring effects of phase I and II xenobiotic metabolizing enzyme (XMEs) on cytotoxicity; an HTS genotoxicity assay; and a real-time cellular impedance assay that measures the kinetics of cell growth and changes in morphology. For all cell-based assays, time points were selected on the basis of studies conducted during the assay development and were considered optimal for the end point being evaluated.
# A total of 624 in vitro assay end points (including multiple time points) were measured for each chemical, generating > 200,000 concentration responses. […] In all cases we report a characteristic micromolar concentration for each chemical–assay combination.
# PPARα = target: T2, PPARα (Homo sapiens, UniProt Q07869); assay: PPARα assays
# T2 sequence (Q07869 1-468): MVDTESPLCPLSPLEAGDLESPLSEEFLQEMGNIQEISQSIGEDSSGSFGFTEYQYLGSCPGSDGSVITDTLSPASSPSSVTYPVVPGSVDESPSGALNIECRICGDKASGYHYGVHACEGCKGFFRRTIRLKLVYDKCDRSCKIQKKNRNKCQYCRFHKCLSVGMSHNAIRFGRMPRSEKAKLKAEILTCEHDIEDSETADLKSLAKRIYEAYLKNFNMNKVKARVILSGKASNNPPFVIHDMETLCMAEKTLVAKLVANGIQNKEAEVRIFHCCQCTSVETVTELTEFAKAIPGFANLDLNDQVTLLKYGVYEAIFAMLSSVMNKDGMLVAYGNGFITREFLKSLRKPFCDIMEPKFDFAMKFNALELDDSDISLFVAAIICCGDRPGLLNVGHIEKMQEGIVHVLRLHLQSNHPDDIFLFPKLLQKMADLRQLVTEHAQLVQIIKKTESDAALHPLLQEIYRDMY
# Description: (§1) There are 467 cell-free or cell-based assays.
# [1] = system: HepG2 (hepatocellular carcinoma cell line G2); assay: HepG2 high-content cell-imaging assays (mitochondrial poison); assay type: cell-based, human
# Description: as §1
# [2] = target: matrix metalloproteinase (MMP)3 (Homo sapiens, UniProt P08254); assay: Cell-free HTS assay, direct interaction with MMP3; assay type: biochemical
# Sequence of matrix metalloproteinase (MMP)3 (P08254 100-477): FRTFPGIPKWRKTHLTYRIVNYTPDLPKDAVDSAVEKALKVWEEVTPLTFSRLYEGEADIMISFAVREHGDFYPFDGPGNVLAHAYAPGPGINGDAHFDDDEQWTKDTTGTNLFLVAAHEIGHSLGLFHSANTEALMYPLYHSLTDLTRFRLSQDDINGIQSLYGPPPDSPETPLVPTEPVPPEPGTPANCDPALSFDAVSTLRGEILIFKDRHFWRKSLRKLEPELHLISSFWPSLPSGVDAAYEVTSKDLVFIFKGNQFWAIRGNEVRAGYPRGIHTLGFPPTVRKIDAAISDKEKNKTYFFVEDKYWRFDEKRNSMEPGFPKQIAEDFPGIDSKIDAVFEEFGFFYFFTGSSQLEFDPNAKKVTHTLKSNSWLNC
# Description: as §1
# MMP13 = MMP13 (Homo sapiens, UniProt P45452); assay: Cell-free HTS assay, direct interaction with MMP13; assay type: biochemical
# Description: as §1
# MMP1 = assay: Cell-based assay, perturbation of MMP1 levels
# Description: as §1
# MMP9 = assay: Cell-based assay, perturbation of MMP9 levels
# Description: as §1
Compound,Activity in PPARγ assays (PPARγ),Activity in PPARα assays (PPARα),Mitochondrial poison activity in HepG2 high-content cell imaging [1],also measured
CCOC(=O)C(C)OC(=O)c1cc(Oc2ccc(C(F)(F)F)cc2Cl)ccc1[N+](=O)[O-] (centres unmarked) [lactofen],positive,active,–,–
CO/C=C(/C(=O)OC)c1ccccc1Oc1cc(Oc2ccccc2C#N)ncn1 [Azoxystrobin],–,–,active mitochondrial poisons,–
"O=S(=O)(O)C(F)(F)C(F)(F)C(F)(F)C(F)(F)C(F)(F)C(F)(F)C(F)(F)C(F)(F)F [PFOS, perfluorooctane sulfonic acid]",positive,all but PFOS were also active,–,AC50 [2]: 14.6 µM; AC50 (MMP13): 32.4 µM; AC50 (MMP1): 13.3 µM; AC50 (MMP9): 4.4 µM
"O=C(O)C(F)(F)C(F)(F)C(F)(F)C(F)(F)C(F)(F)C(F)(F)C(F)(F)F [PFOA, perfluorooctanoic acid]",–,active,–,–
CCCCC(CC)COC(=O)c1ccccc1C(=O)OCC(CC)CCCC (centres unmarked) [diethylhexyl phthalate],positive,active,–,–
COC(=O)N(OC)c1ccccc1COc1ccn(-c2ccc(Cl)cc2)n1 [pyraclostrobin],–,–,active mitochondrial poisons,–
CO/N=C(/C1=NOCCO1)c1ccccc1Oc1ncnc(Oc2ccccc2Cl)c1F [fluoxastrobin],–,–,active mitochondrial poisons,–
